Measurements published in US11730723B2, “Compounds and methods for treating viral infections” (priority 2020, dated 2023).
Where two headings read alike, the source gives them in different places.

What was measured:
[1] = test system: Vero E6 cells; details: for viability of Vero E6 cells (percent of vehicle alone): 2-day treatment, mean ± SD of duplicates
[2] = in vitro; details: African green monkey
[3] = test system: SARS-CoV-2 (USA-WA1/2020); details: Compound 1 at 25 μM; HCQ at 5 μM; remdesivir 10 μM
[4] = test system: SARS-CoV-2 (USA-WA1/2020); experiment: microbe, parasite or virus in culture; details: Severe acute respiratory syndrome coronavirus 2, Vero C1008, 48 h, read-out: Live SARS-CoV-2 Antiviral Assay IC50

CCN(CCO)CCCC(C)Nc1ccnc2cc(Cl)ccc12 (centres unmarked) [HCQ, hydroxychloroquine]
viability of Vero E6 cells (percent of vehicle alone) ([1]; 0.16 μM): 103.9 ± 6.9% | viability of Vero E6 cells (percent of vehicle alone) ([1]; 0.31 μM): 102.3 ± 4.6% | viability of Vero E6 cells (percent of vehicle alone) ([1]; 0.63 μM): 103.2 ± 3.4% | viability of Vero E6 cells (percent of vehicle alone) ([1]; 1.25 μM): 100.4 ± 0.5% | viability of Vero E6 cells (percent of vehicle alone) ([1]; 2.5 μM): 94.4 ± 7.9% | viability of Vero E6 cells (percent of vehicle alone) ([1]; 5 μM): 93.4 ± 6.5% | viability of Vero E6 cells (percent of vehicle alone) ([1]; 10 μM): 93.8 ± 6.0% | viability of Vero E6 cells (in words) ([1]; Compound 1 at concentrations lower than 25 μM, HCQ at all concentrations tested): not significantly changed | CC50 [2]: > 10000 nM | prevention of the SARS-CoV-2 induced CPE (in words) [3]: prevented most of the virus-induced CPE | IC50 [4]: ~3000 nM
